The results in this text go back to US20030105115A1, “Novel pyridopyrimidines and uses thereof” (priority 2001, published 2003).

This series is described as follows: Hydroxyapatite assay (hydroxyapatite adsorption chromatography, bone-targeting potential). In kind it is physicochemical. The settings on record: corrected retention K=(retention time-void time)/void on TSK-Gel HA 1000 HPLC column; linear gradient 10 mM to 500 mM sodium phosphate, 0.15 N NaCl, pH 6.8. The text has this: Hydroxyapatite is the principal mineral component of bone. Hydroxyapatite adsorption chromatography is used as an assay to evaluate the bone-targeting potential of both individual bone-targeting moieties (“monomers”) and of pharmaceuticals incorporating bone-targeting groups.
The rentention time of the compound is expressed in terms of K=(retention time-void time)/void. This K value is corrected using two reference compounds to correct from inter-column and inter-system variation to obtain a K′ value.
Reference Compounds: K′ values were determined for known bone targeted compounds, the bisphosphonate, alendronate and tetracycline.

On to `NCCCC(O)(P(=O)(O)O)P(=O)(O)O` [Alendronate, alendronate], for which the “K′ value” was determined as 3.7.
